According to publication PMC8890542, “Discovery of novel paeonol-based derivatives against skin inflammation in vitro and in vivo” (Journal of Enzyme Inhibition and Medicinal Chemistry, 2022):

Key:
γ-H2AX = assay: Western blot, SUV-induced γ-H2AX in HaCaT cells; type: cell-based, human; details: 2.5 μM to 10 μM, 6 h before 40 KJ/m^2 SUV
Experimental: (§1) HaCaT cells were seeded into 6-well plate with 2 × 10^6 cells per well. After 24 h culture and 12 h starvation, they were stimulated with SUV irradiation. The cells were irritated with 40 KJ/m^2 doses of SUV at 30 min. In order to study the effect of compound B12, the cells were starved in serum-free medium for 12 h, and then pre-treated with compound B12 (2.5, 5, 10 μM) for 6 h before SUV irradiation. Follow the same steps as above to transfer the electrophoretic band to PVDF membrane. All steps were performed in the same way as above except that the types of primary and secondary antibodies were different.

COX-2 = assay: Western blot of COX-2 in LPS-stimulated RAW264.7 cells; type: cell-based, mouse; details: 2.5, 5, 10 µM, 1 h, LPS 24 h
Experimental: (§2) RAW264.7 cells were seeded into 6-well plate with 2 × 10^6 cells per well and maintained about 24 h, and then pre-treated with compound B12 (2.5, 5, 10 µM) for 1 h, co-treated with LPS (0.5 µg/mL) for 0.5 h or 24 h. Western blotting assay was performed as the method described previously. Briefly, the cells were lysed in […] RIPA cell lysis buffer (Contains PMSF and phosphatase inhibitors, Beyotime China) and incubated on ice for 30 min. Collecting supernatant by centrifugation. The same amount of protein was separated by SDS-PAGE and transferred to PVDF membrane (GE Healthcare, Amersham, UK). The blotted membrane incubated with the primary antibodies and allowed to react for an additional 16 h at 4 °C. All antibodies obtain from Cell Signalling Technology, Boston, MA. The membranes incubated with a 1:5000 dilutions of HRP-conjugated secondary antibody (Beyotime Biotech, Nantong, China) for 1 h at room temperature. Signals were visualised using ECL system (Thermo Fisher Scientific, Waltham, MA).

TOPK = biological target: T1, TOPK (Homo sapiens, UniProt Q96KB5); assay: Cellular thermal shift assay (CETSA); type: binding; details: especially at 57 °C
T1 construct: endogenous in cells
T1 sequence (Q96KB5 1-322): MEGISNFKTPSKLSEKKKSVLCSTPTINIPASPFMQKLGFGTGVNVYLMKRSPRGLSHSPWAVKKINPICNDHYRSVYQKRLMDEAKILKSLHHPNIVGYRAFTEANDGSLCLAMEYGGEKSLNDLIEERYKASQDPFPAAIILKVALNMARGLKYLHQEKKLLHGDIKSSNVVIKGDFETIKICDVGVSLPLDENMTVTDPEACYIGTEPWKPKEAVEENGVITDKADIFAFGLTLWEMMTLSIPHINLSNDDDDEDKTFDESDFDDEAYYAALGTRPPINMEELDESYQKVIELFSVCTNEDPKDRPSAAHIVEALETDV
Text: Based on the ligand-induced thermal stabilisation of target proteins, the cellular thermal shift assay (CETSA) assay is likely to validate drug binding, off-target effects or drug resistance in cell lines. To further detect the direct binding of compound B12 with TOPK protein, CETSA was used in this study.

iNOS = assay: Western blot of iNOS in LPS-stimulated RAW264.7 cells; type: cell-based, mouse; details: 2.5, 5, 10 µM, 1 h, LPS 24 h
Experimental: as §2

[1] = test system: IMQ-induced psoriasis mouse model; assay: IMQ-induced psoriasis-like skin inflammation mouse model; type: in vivo, BALB/c mice
Text: During treatment for 7 days, to score the severity of inflammation of mouse skin, an objective scoring system was developed based on the clinical psoriasis area and severity index. Erythema, scaling, and thickening were scored independently from 0 to 4 as follows: 0, none; 1, slight; 2, moderate; 3, marked; 4, very marked and weight loss. The cumulative score (erythema plus scaling plus thickening) served to indicate the severity of inflammation (scale 0 ∼ 12). On the 8th day, the mice were taken eyeball blood and back skin. One-half of the samples were immediately fixed in 4% paraformaldehyde and for haematoxylin and eosin (H&E) staining. The other samples were put in a −80 °C freezer. Before used, they were placed at room temperature for 30 min. After that, they were added 1 × PBS proportionally, homogenised and centrifuged. The supernatant was collected and used for ELISA assay and Western blot assay. […] The histological image was obtained using 3[sequence]’s Slide Converter (3[sequence], Hungary).

[2] = test system: LPS-induced nitric oxide production in RAW264.7 cells; assay: LPS-induced NO production, Griess Reagent assay; type: cell-based, mouse; details: Mus musculus
Procedure, shortened: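 RAW264.7 mouse macrophages were plated in 48-well plates at 7 × 10^4 cells/well and used 24 h later. Supernatants collected after 24 h were assayed for NO with the Griess Reagent (Beyotime), mixed 1:1 and reacted 15 min at room temperature, and absorbance was read at […]. IC50 values came from at least three independent experiments (mean ± SD, GraphPad Prism 8.0).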

[3] = Cell viability assay (MTT), LO2; type: cell-based; details: human, LO2 cells, read-out: Cytotoxicity IC50 with LO2
JNK [4] = assay: Western blot, LPS-induced JNK phosphorylation in RAW264.7; type: cell-based, mouse; details: LPS (0.5 μg/mL) 30 min
Experimental: as §2

[5] = Human liver microsomes stability assay in vitro; type: in vitro ADME
Experimental: The livers were homogenised initially in a Tris (0.1 M)/KCl (0.1 M)/EDTA (1 mM)/butylated sodium hydroxytoluene (BHT) (0.02 mM) buffer. Add 1.5 µL control/test compound B12 working solution to 238.5 µL liver microsome working solution, gently mix. Pre-incubate at 37 °C for 5 min. Start the reaction by adding 60 µL NADPH working solution. Mix by pipetting up and down. At each time point: 0, 5, 15, 30 and 60 min, remove 30 µL of reaction mixture to 300 µL of quenching solution. Vortex vigorously for ∼1 min and centrifuge at 4000 rpm at 4 °C for 15 min. Remove 100 µL of the supernatant and mixed with 100 µL distilled water for LC-MS/MS analysis.

NF-κB p65 = assay: Western blot, LPS-induced NF-κB p65 translocation in RAW264.7; type: cell-based, mouse; details: LPS (0.5 μg/mL) 30 min
Experimental: as §2

JNK [6] = assay: Western blot, SUV-induced JNK phosphorylation in HaCaT cells; type: cell-based, human; details: SUV (40 kJ/m^2) 30 min
Experimental: as §1

STAT3 = assay: Western blot, SUV-induced STAT3 phosphorylation in HaCaT cells; type: cell-based, human; details: 2.5 μM to 10 μM, 6 h before 40 KJ/m^2 SUV
Experimental: as §1

P38 [7] = assay: Western blot, LPS-induced p38 phosphorylation in RAW264.7; type: cell-based, mouse; details: LPS (0.5 μg/mL) 30 min
Experimental: as §2

p38 [8] = assay: Western blot, SUV-induced p38 phosphorylation in HaCaT cells; type: cell-based, human; details: SUV (40 kJ/m^2) 30 min
Experimental: as §1

LPS-induced HaCaT cells = assay: Hyperproliferation assay, LPS-stimulated HaCaT cells (MTT); type: cell-based, human; details: pre-treated 6 h, LPS 24 h
Experimental: HaCaT cells were seeded in 96-well plates and cultured at 37 °C in a humidified 5% CO2 atmosphere. When the cell confluency reached 60–70%, HaCaT cells were then starved in serum-free DMEM for 12 h before stimulated by 100 ng/mL LPS for 24 h to mimic hyperproliferative psoriatic keratinocytes. The cell viability was measured by MTT method. Results are expressed as the percentage survival of cells in the cell treated group and the untreated control group (without the tested compound and LPS).

RAW264.7 cells = assay: Cell viability assay (MTT), RAW264.7; type: cell-based, mouse; details: 24 h, read-out: Cytotoxicity IC50 with RAW264.7
Procedure, shortened: (§3)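 Cells seeded at 1 × 10^4/well, treated after 24 h with compounds at 4, 20 and 100 µM for 24 h. MTT added for 4 h, formazan dissolved in DMSO, absorbance read at 492 nm; IC50 as mean ± SD of at least three independent experiments.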

[9] = Cell viability assay (MTT), RAW264.7; type: cell-based, mouse; details: mouse, RAW264.7 cells, read-out: Cytotoxicity IC50 with RAW264.7
Procedure, shortened: as §3

## COc1cc(O)c(C(C)=O)cc1NC(=O)Nc1cccc(C(F)(F)F)c1 [Compound B12, 1–(5-acetyl-4-hydroxy-2-methoxyphenyl)-3–(3-(trifluoromethyl)phenyl) urea]
γ-H2AX
  Level of phosphorylated γ-H2AX: gradually decreased
COX-2
  Expression of COX-2: inhibited by compound B12 in a dose-dependent manner
TOPK
  Thermal stability of TOPK (CETSA): stabilised
iNOS
  Expression of iNOS: inhibited by compound B12 in a dose-dependent manner
[1]; 20 mg/kg, intragastric once a day, 7 days
  Pathological reduction, H&E of skin tissue: moderate pathological reduction
[1]; 40 mg/kg, intragastric once a day, 7 days
  Pathological reduction, H&E of skin tissue: high pathological reduction
[1]; 20 and 40 mg/kg, Western blot
  Expression of related proteins (p-STAT3, p-TOPK, TOPK, p-p38, p-JNKs, PCNA, p-H2AX) in mouse skin tissues: decreased significantly
[1]; B12 20 and 40 mg/kg, Dex 20 mg/kg, intragastric once a day, 7 days
  Experimental symptoms and PASI score: significantly attenuated experimental symptoms and PASI score in a dose-dependent manner
[2]; LPS (0.5 μg/mL) 24 h
  IC50: 2.14 µM
[2]; compounds 10 μM, 1 h, then LPS (0.5 μg/mL) 24 h, read-out: Inhibition rate±SD (%) against NO production
  inhibition at 10 µM: 95.5 ± 3.26%
[3]
  IC50 at 24 h: > 100 µM
JNK [4]
  JNK protein phosphorylation: inhibited
[5]; human
  CLhep: 8.5 mL/min/kg
[5]; human liver microsomes
  half-life: 1.85 h
  microsomal CLint: 12.5 µL/min/mg
NF-κB p65
  NF-κB p65 translocation into the nucleus: inhibited
JNK [6]
  Phosphorylation of JNK, SUV-induced: inhibited
STAT3
  Level of phosphorylated STAT3: gradually decreased
P38 [7]
  P38 protein phosphorylation: inhibited
p38 [8]
  Phosphorylation of p38, SUV-induced: inhibited
LPS-induced HaCaT cells
  Excessive proliferation of LPS-induced HaCaT cells: inhibited excessive proliferation of LPS-induced HaCaT cells in a dose dependent manner
RAW264.7 cells
  IC50: > 100 µM
[9]
  IC50 at 24 h: > 50 µM
